From publication PMC5244392, “Interspecies cathelicidin comparison reveals divergence in antimicrobial activity, TLR modulation, chemokine induction and regulation of phagocytosis” (Scientific Reports, 2017)

How the values were obtained:
Type in all cases: cell-based, murine
[1] = tested on: CXCL10 (IP-10) release by RAW264.7 cells; assay: Cathelicidin induced CXCL10 release; settings: for Increase of CXCL10 secretion after 24 h stimulation: 20 μM peptide; for Summary class, chemokines CXCL10 (24 h): 24 h stimulation, peptide 0.08-20 μM, − = no significant effect, N = 3
Procedure: (§1) E. coli O78 (Zoetis Animal Health, Kalamazoo, MI, USA), E. coli ATCC 25922, Staphylococcus aureus ATCC 29213, and methicillin resistant Staphylococcus aureus (MRSA) (WKZ-2, human clinical isolate) were grown overnight from a glycerol stock in Mueller Hinton Broth (MHB) (Becton Dickinson, USA). Before use, bacteria were grown to mid-log phase in MHB for 2 hours at 37 °C, 200 RPM. Murine RAW264.7 macrophages (ATCC-TIB-71) were obtained from the American Type Culture Collection (ATCC, Manassas, VA, USA) and cultured in DMEM (41966-029; Thermo Fisher Scientific, Waltham, MA, USA) supplemented with 10% FCS (Bodinco B.V., Alkmaar, the Netherlands) (DMEM + FCS) at 37 °C, 5.0% CO2. Cells were seeded in 96-wells plates at 5 × 10^5 cells/ml or 12-wells plates at 2 × 10^5/ml for adherence overnight prior to stimulation.
(§2) RAW264.7 cells were stimulated with 100 ng/ml LPS E. coli O111:B4, 1 μg/ml LTA S. aureus or 2.5 nM ODN-1826 in the presence of various concentrations of different cathelicidins. TNFα release was determined after 2 h for LPS and LTA stimulation and 24 h for ODN-1826 stimulation. CXCL10, CCL5 and IL-10 release were all determined after 24 h stimulation. As a control, RAW264.7 cells were stimulated for 2 h with 10^6 CFU/ml live or heat-killed (70 °C, 0.5 h) E. coli O78, followed by a double wash with cell culture medium and subsequent 22 h incubation in cell culture medium supplemented with 250 μg/ml gentamicin.
(§3) ELISA Duoset kits for mouse TNFα, CCL5, CXCL10 and IL-10 were obtained from R&D systems (Minneapolis, MN, USA) and ELISAs were performed according to the manufacturer’s protocol. Samples were stored at −20 °C until analysis and, if needed, diluted in 1% BSA in PBS, pH 7.4. Absorbance at 450 nm was determined in a FLUOstar Omega microplate reader (BMG Labtech GmbH) and corrected for absorbance at 570 nm. Results were analyzed with MARS data analysis software (BMG Labtech GmbH).
(§4) Since cathelicidins have membrane-perturbing properties which might affect the host’s cell membrane, first the possible cytotoxicity of the cathelicidins to RAW264.7 cells was assessed. […] Next, RAW264.7 cells were stimulated with the cathelicidins at various concentrations for 2 h and 24 h, after which release of CCL2 (MCP-1), CCL5 (RANTES), CXCL10 (IP-10), TNFα and IL-10 was determined.
Figure 2 Cathelicidin induced chemokine and cytokine release by RAW264.7 cells. RAW264.7 cells were incubated for 2 h and 24 h with cathelicidins (0.08 μM, 0.31 μM, 1.25 μM, 5 μM, and 20 μM), after which the supernatants were harvested and tested for release of CCL2 at 2 h (A) and 24 h (B), CCL5 at 24 h (C) and CXCL10 at 24 h (D). Dotted line represents average cytokine release of control samples. Results are presented as average +/− SEM (N = 3). Statistical differences were determined by Two-way ANOVA with Bonferroni post-hoc test.

[2] = tested on: LTA-induced TLR-2 activation of RAW264.7 cells; assay: LTA neutralization: LTA-induced TNFα release; settings: peptide 0.08-20 μM; for Summary class, TLR activation LTA: 1 μg/ml LTA S. aureus, TNFα after 2 h, − = no significant effect, N = 3; for LTA neutralization / inhibition of LTA-induced activation, in words: 1 μg/ml S. aureus LTA, 2 h, TNFα
From the text: (§5) TLR ligands: LPS Escherichia coli (E. coli) O111:B4 (TLR-4), LTA S. aureus (TLR-2), and ODN-1826 (TLR-9) were obtained from Invivogen (Toulouse, France). Chicken CATH-2 (chCATH-2) and PMAP-36 were synthesized by Fmoc-chemistry at China Peptides (CPC scientific, Sunnycale, CA) and all other cathelicidins were synthesized by Fmoc-chemistry at the Academic Centre for Dentistry Amsterdam (Amsterdam, The Netherlands) (Table 1). Purity of all peptides was >95% as analyzed by HPLC-MS.
as §2, §3
RAW264.7 cells were stimulated for 2 h with 100 ng/ml LPS from E. coli O111:B4 in the presence of different cathelicidins at various concentrations to study the capability of LPS neutralization (Fig. 3A). […] Next, RAW264.7 cells were stimulated with 1 μg/ml S. aureus LTA for 2 h in the presence of various cathelicidin concentrations, to test LTA neutralization (Fig. 3B).
(§6) Figure 3 Effects of cathelicidins on TLR-2, -4, and -9 activation. LPS (100 ng/ml) (A), LTA (1 μg/ml) (B) or ODN-1826 (2.5 nM) (C) was mixed with different cathelicidins (0.08 μM, 0.31 μM, 1.25 μM, 5 μM, and 20 μM) before addition to the RAW264.7 cells. Supernatants were collected after 2 hours (A,B) or 24 hours (C) incubation and TNFα expression was measured. The dotted line represents the average cytokine release of control samples. Results are presented as average +/− SEM (N = 3). Statistical differences were determined by Two-way ANOVA with Bonferroni post-hoc test.

[3] = tested on: DNA-induced TLR-9 activation of RAW264.7 cells; assay: Enhancement of DNA (ODN-1826)-induced TNFα release; settings: 2.5 nM ODN-1826, TNFα after 24 h; for Enhancement of DNA-induced TLR-9 activation, in words: 20 μM for the named peptides; for Summary class, TLR activation DNA: peptide 0.08-20 μM, − = no significant effect, N = 3
From the text: as §5, §2, §3, §6
All other peptides had no effect on the DNA-induced TLR-9 activation. To ensure that the increase of TNFα secretion was indeed enhancement of DNA-induced activation and not a result of direct induction by cathelicidins, TNFα release was determined after 24 h cathelicidin stimulation (see Supplementary Fig. S2D). None of the cathelicidins induced TNFα release after 24 h, (if anything, most cathelicidins caused a small reduction of TNFα secretion) indicating the increased activation is indeed enhancement of DNA-induced activation.

[4] = tested on: CCL5 (RANTES) release by RAW264.7 cells; assay: Cathelicidin induced CCL5 release; settings: for Induction of CCL5 secretion after 24 h stimulation: 20 μM peptide; for Summary class, chemokines CCL5 (24 h): 24 h stimulation, peptide 0.08-20 μM, − = no significant effect, N = 3
Procedure: as §1, §2, §3, §4
Figure 2 Cathelicidin induced chemokine and cytokine release by RAW264.7 cells. RAW264.7 cells were incubated for 2 h and 24 h with cathelicidins (0.08 μM, 0.31 μM, 1.25 μM, 5 μM, and 20 μM), after which the supernatants were harvested and tested for release of CCL2 at 2 h (A) and 24 h (B), CCL5 at 24 h (C) and CXCL10 at 24 h (D). Dotted line represents average cytokine release of control samples. […] Statistical differences were determined by Two-way ANOVA with Bonferroni post-hoc test.

Substance | Increase of CXCL10 secretion after 24 h stimulation [1] | Summary class, chemokines CXCL10 (24 h) [1] | Summary class, TLR activation LTA [2] | LTA neutralization / inhibition of LTA-induced activation, in words [2] | Enhancement of DNA-induced TLR-9 activation, in words [3] | Summary class, TLR activation DNA [3] | Induction of CCL5 secretion after 24 h stimulation [4] | Summary class, chemokines CCL5 (24 h) [4] | Optimal concentration to induce DNA activation [3] [µM]
KRRHWFPLSFQEFLEQLRRFRDQLPFP [eCATH-2, equine CATH-2, 27 residues, charge +4] | 2–3 fold | ↑ (↑ = significant increase at 20 μM) | ↓↓ (↓↓ = significant decrease ≤5 μM) | significantly inhibited | able to enhance DNA-induced TLR-9 activation | ↑ (↑ = significant increase at 20 μM) | – | – | –
RFGRFLRKIRRFRPKVTITIQGSARF-NH2 [chCATH-2, chicken CATH-2, C-terminal amide, 26 residues, charge +9] | – | – | ↓↓ (↓↓ = significant decrease ≤5 μM) | potently inhibited | – | ↑↑ (↑↑ = significant increase ≤5 μM) | 2–3 fold | ↑ (↑ = significant increase at 20 μM) | 1.25
GLLRKGGEKIGEKLKKIGQKIKNFFQKLVPQPEQ [CRAMP, murine cathelicidin, 34 residues, charge +6] | 2–3 fold | ↑ (↑ = significant increase at 20 μM) | ↓ (↓ = significant decrease at 20 μM) | – | – | – | – | – | –
RIIDLLWRVRRPQKPKFVTVWVR [PMAP-23, porcine α-helical cathelicidin, 23 residues, charge +6] | – | – | ↓ (↓ = significant decrease at 20 μM) | – | able to enhance DNA-induced TLR-9 activation | ↑ (↑ = significant increase at 20 μM) | – | – | –
RLKELITTGGQKIGEKIRRIGQRIKDFFKNLQPREEKS [Peptide K9CATH, dog cathelicidin, 38 residues, charge +6] | 2–3 fold | ↑ (↑ = significant increase at 20 μM) | – | – | – | – | 2–3 fold | ↑ (↑ = significant increase at 20 μM) | –
RRRPRPPYLPRPRPPPFFPPRLPPRIPPGFPPRFPPRFP [PR-39, porcine proline-rich cathelicidin forming a polyproline helix, 39 residues, charge +10] | – | – | – | – | able to enhance DNA-induced TLR-9 activation | ↑ (↑ = significant increase at 20 μM) | – | – | –
